Test results reported in US20100204129A1, “USE OF A PEPTIDE AS A THERAPEUTIC AGENT” (priority 2008, published 2010).
Non-standard residues stand in square brackets, D forms with d. Residues, ends and D or L forms follow the SMILES beside them.

Tested on: drug-resistant Mycobacterium tuberculosis
Details: 5 micrograms per ml

CC(C)C[C@H](NC(=O)[C@H](CC(C)C)NC(=O)[C@@H](Cc1c[nH]c2ccccc12)NC(=O)[C@H](Cc1ccccc1)NC(=O)[C@@H](Cc1c[nH]c2ccccc12)NC(=O)[C@H](CCC(N)=O)NC(=O)[C@H](CCC(N)=O)NC(=O)[C@@H]1CCCN1C(=O)[C@H](CCCCN)NC(=O)[C@@H]1CCCN1C(=O)[C@@H](CCCNC(=N)N)NC(=O)[C@@H]1CCCN1C(=O)CNC(=O)[C@H](CC(C)C)NC(=O)[C@H](CC(C)C)NC(=O)[C@H](Cc1ccc(O)cc1)NC(=O)CNC(=O)[C@H](C)NC(=O)[C@H](CO)NC(=O)[C@H](CC(N)=O)NC(=O)[C@H](CC(C)C)NC(=O)[C@@H](NC(=O)[C@H](Cc1c[nH]c2ccccc12)NC(=O)CN)[C@@H](C)O)C(N)=O [Spantide-I, Gly-Trp-Thr-Leu-Asn-Ser-Ala-Gly-Tyr-Leu-Leu-Gly-Pro-D-Arg-Pro-Lys-Pro-Gln-Gln-D-Trp-Phe-D-Trp-Leu-Leu-NH2] (H-GWTLNSAGYLLGP[dR]PKPQQ[dW]F[dW]LL-NH2)
% inhibition: 100.0%
